# Data reported in patent US10053431B2, “Tetrahydro-benzodiazepinones” (priority 2013, dated 2018).
# Structures can show the parent of a compound that is named as a salt.
# Tests used:
# BIR2 domain of XIAP = BIR2 domain of XIAP (Homo sapiens (Human), UniProt P98170, C202A/C213G); test: TR-FRET assay for BIR2 (inhibition of binding of XIAP BIR2 domain to SMAC-derived Peptide A); conditions: 6x His-tagged BIR2 domain (aa 124-240 of XIAP) 10 nM, Peptide A 20 nM, TR-FRET; read-out: IC50 BIR2
# BIR3 domain of XIAP = BIR3 domain of XIAP (Homo sapiens (Human), UniProt P98170); test: TR-FRET assay for BIR3 (inhibition of binding of XIAP BIR3 domain to SMAC-derived Peptide A); conditions: 6x His-tagged BIR3 domain (aa 241-356 of XIAP) 10 nM, Peptide A 20 nM, TR-FRET
# Sequence of BIR3 domain of XIAP (P98170 241-356 with tags or gaps limits assumed): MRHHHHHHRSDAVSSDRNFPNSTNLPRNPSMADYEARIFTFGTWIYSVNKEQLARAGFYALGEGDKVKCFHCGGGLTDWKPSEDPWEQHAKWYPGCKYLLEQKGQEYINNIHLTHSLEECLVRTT
# Sequence of BIR2 domain of XIAP (P98170 124-240 with tags or gaps C202A/C213G limits assumed): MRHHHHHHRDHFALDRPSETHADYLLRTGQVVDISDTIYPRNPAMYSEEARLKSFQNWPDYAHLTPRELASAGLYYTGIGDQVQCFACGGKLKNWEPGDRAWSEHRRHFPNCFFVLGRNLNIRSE
IC50 (BIR3 domain of XIAP),Compound,IC50 (BIR2 domain of XIAP)
15200 nM,"CN[C@@H](C)C(=O)N[C@H]1CN(C(=O)C2CCOCC2)c2cc(C(F)(F)F)ccc2N(Cc2c(C3CC3)cnc3ccccc23)C1=O [Example 184, (S)-N-((S)-1-((3-cyclopropylquinolin-4-yl)methyl)-2-oxo-5-(tetrahydro-2H-pyran-4-carbonyl)-7-(trifluoromethyr)-2,3,4,5-tetrahydro-1H-benzo[b][1,4]diazepin-3-yl)-2-(methylamino)propanamide]",18.3 nM
–,"COc1ccc2cc(Br)ccc2c1CN1C(=O)[C@@H](NC(=O)[C@H](C)N)CN(C(=O)c2ccc(C(C)=O)cc2)c2ccccc21 [Example 39, (S)—N—((S)-5-(4-acetylbenzoyl)-1-((6-bromo-2-methoxynaphthalen-1-yl)methyl)-2-oxo-2,3,4,5-tetrahydro-1H-benzo[b][1,4]diazepin-3-yl)-2-aminopropanamide hydrochloride]",19 nM
25600 nM,"CN[C@@H](C)C(=O)N[C@H]1CN(C(C)=O)c2cc(C#N)ccc2N(Cc2c(C3CC3)ccc3c(C#N)cccc23)C1=O [Example 176, (S)-N-((S)-5-acetyl-7-cyano-1-((5-cyano-2-cyclopropylnaphthalen-1-yl)methyl)-2-oxo-2,3,4,5-tetrahydro-1H-benzo[b][1,4]diazepin-3-yl)-2-(methylamino)propanamide hydrochloride]",38.2 nM
42300 nM,"CN[C@@H](C)C(=O)N[C@H]1CN(C(=O)c2ccc(C(C)=O)cc2)c2ccccc2N(CC(=O)Nc2nc3ccccc3s2)C1=O [Example 109, (2S)-N-[(3S)-1-(4-acetylbenzoyl)-5-[2-(1,3-benzothiazol-2-ylamino)-2-oxoethyl]-4-oxo-2,3-dihydro-1,5-benzodiazepin-3-yl]-2-(methylamino)propanamide;2,2,2-trifluoroacctic acid]",121 nM
–,CN[C@@H](C)C(=O)N[C@H]1CN(C(=O)CC23CC4CC(CC(C4)C2)C3)c2ccccc2N(Cc2c(OC)ccc3cc(Br)ccc23)C1=O [Example 13q],92 nM
–,"CN[C@@H](C)C(=O)N[C@H]1CN(C(=O)CCCC(C)=O)c2ccccc2N(Cc2c(OC)ccc3cc(Br)ccc23)C1=O [Example 27, (S)—N—((S)-1-((6-bromo-2-methoxynaphthalen-1-yl)methyl)-2-oxo-5-(5-oxohexanoyl)-2,3,4,5-tetrahydro-1H-benzo[b][1,4]diazepin-3-yl)-2-(methylamino)propanamide hydrochloride]",33 nM
–,"CN[C@@H](C)C(=O)N[C@H]1CN(C(=O)COCCOCCOC)c2ccccc2N(Cc2c(C)ccc3ccccc23)C1=O [Example 13, (S)—N—[(S)-5-{2-[2-(2-Methoxy-ethoxy)-ethoxy]-acetyl}-1-(2-methyl-naphthalen-1-ylmethyl)-2-oxo-2,3,4,5-tetrahydro-1H-benzo[b][1,4]diazepin-3-yl]-2-methylamino-propionamide hydrochloride]",234 nM
–,"CN[C@@H](C)C(=O)N[C@H]1CN(C(=O)CCN)c2ccccc2N(Cc2c(OC)ccc3cc(C(=O)O)ccc23)C1=O [Example 62, 5-(((S)-5-(3-aminopropanoyl)-3-((S)-2-(methylamino)propanamido)-2-oxo-2,3,4,5-tetrahydro-1H-benzo[b][1,4]diazepin-1-yl)methyl)-6-methoxy-2-naphthoic acid hydrochloride]",17 nM
–,CN[C@@H](C)C(=O)N[C@H]1CN(C(=O)c2ccc(C(=O)C(C)(C)C)cc2)c2ccccc2N(Cc2c(OC)ccc3cc(Br)ccc23)C1=O [Example 13j],37 nM
–,"CN[C@@H](C)C(=O)N[C@H]1CN(C(=O)c2ccc(C(=O)OC)cc2)c2ccccc2N(Cc2c(OC)ccc3cc(Br)ccc23)C1=O [Example 28, 4-[(S)-5-(6-Bromo-2-methoxy-naphthalen-1-ylmethyl)-3-((S)-2-methylamino-propionylamino)-4-oxo-2,3,4,5-tetrahydro-benzo[b][1,4]diazepine-1-carbonyl]-benzoic acid methyl ester hydrochloride]",39 nM
–,"CN[C@@H](C)C(=O)N[C@H]1CN(C(=O)c2ccc(C(=O)O)cc2)c2ccccc2N(Cc2c(OC)ccc3cc(Br)ccc23)C1=O [Example 29, 4-[(S)-5-(6-Bromo-2-methoxy-naphthalen-1-ylmethyl)-3-((S)-2-methylamino-propionylamino)-4-oxo-2,3,4,5-tetrahydro-benzo[b][1,4]diazepine-1-carbonyl]-benzoic acid hydrochloride]",28 nM
–,"CN[C@@H](C)C(=O)N[C@H]1CN(C(=O)c2ccc(C(O)C(F)(F)F)cc2)c2ccccc2N(Cc2c(OC)ccc3cc(Br)ccc23)C1=O (mixture of isomers) [Example 32, (S)—N—{(S)-1-(6-Bromo-2-methoxy-naphthalen-1-ylmethyl)-2-oxo-5-[4-(2,2,2-trifluoro-1-hydroxy-ethyl)-benzoyl]-2,3,4,5-tetrahydro-1H-benzo[b][1,4]diazepin-3-yl}-2-methylamino-propionamide hydrochloride, mixture of diastereomers]",25 nM
–,"CN[C@@H](C)C(=O)N[C@H]1CN(C(=O)C23CC4CC(CC(C4)C2)C3)c2ccccc2N(Cc2c(OC)ccc3cc(Br)ccc23)C1=O [Example 34, (S)—N—[(S)-5-(Adamantane-1-carbonyl)-1-(6-bromo-2-methoxy-naphthalen-1-ylmethyl)-2-oxo-2,3,4,5-tetrahydro-1H-benzo[b][1,4]diazepin-3-yl]-2-methylamino-propionamide hydrochloride]",33 nM
–,"CN[C@@H](C)C(=O)N[C@H]1CN(C(=O)c2ccccc2[C@H](C)O)c2ccccc2N(Cc2c(C)ccc3ccccc23)C1=O (stereo in doubt) [Example 153, (25)-N-[(3S)-1-[2-[(1S)-1-hydroxyethyl]benzoyl]-5-[(2-methylnaphthalen-l-yl)methyl]-4-oxo-2,3-dihydro-1,5-benzodiazepin-3-yl]-2-(methylamino)propanamide;(2S)-N-[(3S)-1-[2-[(1R)-1-hydroxyethyl]benzoyl]-5-[(2-methylnaphthalen-1-yl)methyl]-4-oxo-2,3-dihydro-1,5-benzodiazepin-3-yl]-2-(methylamino)propanamide]",52.4 nM
–,CN[C@@H](C)C(=O)N[C@H]1CN(C(=O)Cc2ccc(C(C)=O)cc2)c2ccccc2N(Cc2c(OC)ccc3cc(Br)ccc23)C1=O [Example 13o],28 nM
–,CN[C@@H](C)C(=O)N[C@H]1CN(C(=O)c2cccc(C(C)=O)c2)c2ccccc2N(Cc2c(OC)ccc3cc(Br)ccc23)C1=O [Example 13l],67 nM
–,"CN[C@@H](C)C(=O)N[C@H]1CN(C(=O)CCCC(C)=O)c2ccccc2N(Cc2c(OC)ccc3cc(C(=O)OC)ccc23)C1=O [Example 46, 6-Methoxy-5-[(S)-3 ((S)-2-methylamino-propionylamino)-2-oxo-5-(5-oxo-hexanoyl)-2,3,4,5-tetrahydro-benzo[b][1,4]diazepin-1-ylmethyl]-naphthalene-2-carboxylic acid methyl ester hydrochloride]",62 nM
–,"COc1ccc2cc(Br)ccc2c1CN1C(=O)[C@@H](NC(=O)[C@@H]2CCN2)CN(C(=O)c2ccc(C(C)=O)cc2)c2ccccc21 [Example 36, (S)—N—((S)-5-(4-acetylbenzoyl)-1-((6-bromo-2-methoxynaphthalen-1-yl)methyl)-2-oxo-2,3,4,5-tetrahydro-1H-benzo[b][1,4]diazepin-3-yl)azetidine-2-carboxamide hydrochloride]",5000 nM
–,"CN[C@@H](C)C(=O)N[C@H]1CN(CCc2ccccc2)c2ccccc2N(Cc2cccc3ccccc23)C1=O [Example 7, (S)-2-Methylamino-N—((S)-1-naphthalen-1-ylmethyl-2-oxo-5-phenethyl-2,3,4,5-tetrahydro-1H-benzo[b][1,4]diazepin-3-yl)-propionamide trifluoroacetate]",1550 nM
–,CN[C@@H](C)C(=O)N[C@H]1CN(C(=O)CC2CCCCC2)c2ccccc2N(Cc2c(OC)ccc3cc(Br)ccc23)C1=O [Example 13i],78 nM
> 54800 nM,"CN[C@H](C)C(=O)N[C@H]1CN(C(=O)c2ccc(C(C)=O)cc2)c2ccccc2N(Cc2c(C)ccc3ccccc23)C1=O [Example 68, (R)—N—((S)-5-(4-acetylbenzoyl)-1-((2-methylnaphthalen-1-yl)methyl)-2-oxo-2,3,4,5-tetrahydro-1H-benzo[b][1,4]diazepin-3-yl)-2-(methylamino)propanamide hydrochloride]",–

Compound,IC50 (BIR3 domain of XIAP),IC50 (BIR2 domain of XIAP)
"CN[C@@H](C)C(=O)N[C@H]1CN(C(=O)c2ccc(NC(=O)OCC3c4ccccc4-c4ccccc43)cc2)c2ccccc2N(Cc2c(OC)ccc3cc(C(=O)OC)ccc23)C1=O [Example 55, 5-[(S)-5-[4-(9H-Fluoren-9-ylmethoxycarbonylamino)-benzoyl]-3-((S)-2-methylamino-propionylamino)-2-oxo-2,3,4,5-tetrahydro-benzo[b][1,4]diazepin-1-ylmethyl]-6-methoxy-naphthalene-2-carboxylic acid methyl ester hydrochloride]",> 54800 nM,22 nM
"CN[C@@H](C)C(=O)N[C@H]1CN(C(=O)CC(N)=O)c2ccccc2N(Cc2c(C)ccc3ccccc23)C1=O [Example 11, (S)—N—[(S)-5-(2-Carbamoyl-acetyl)-1-(2-methyl-naphthalen-1-ylmethyl)-2-oxo-2,3,4,5-tetrahydro-1H-benzo[b][1,4]diazepin-3-yl]-2-methylamino-propionamide hydrochloride]",> 54800 nM,426 nM
"CN[C@@H](C)C(=O)N[C@H]1CN(C(=O)CC2CCOCC2)c2ccccc2N(Cc2c(OC)ccc3c(Br)cccc23)C1=O [Example 87, (S)—N—((S)-1-((5-bromo-2-methoxynaphthalen-1-yl)methyl)-2-oxo-5-(2-(tetrahydro-2H-pyran-4-yl)acetyl)-2,3,4,5-tetrahydro-1H-benzo[b][1,4]diazepin-3-yl)-2-(methylamino)propanamide hydrochloride]",54400 nM,–
